Patent US20230398228A1, “ERIBULIN-BASED ANTIBODY-DRUG CONJUGATES AND METHODS OF USE” (EISAI R&D MANAGEMENT CO., LTD., priority 2016, published 2023)
Values joined by “and” are separate entries in the source; they are usually repeats but may differ in a detail not shown here. Equal values may be shown once.

Experiments:
[1] = tested on: Endo-12961 endometrial cancer patient-derived xenograft; experiment: Endometrial cancer PDx model Endo-12961; conditions: for anti-tumor activity, in words: single i.v. dose
Description: (§2) Tumor fragments were implanted subcutaneously into the left flank of 40 NMRI nu/nu female mice, and tumor volume was monitored. Mice with a tumor volume of 100-160 mm^3 were randomized into one of four groups (Groups A-D, Table 39). […] Each group consisted of 8 animals. The day of randomization was designated as Day 0 of the experiment.
(§3) Tumor growth was evaluated by the measurement of two perpendicular diameters twice weekly, and tumor volume (TV), relative tumor volume (RTV) and treated/control (T/C) values were calculated. Body weight was also evaluated twice weekly as a parameter for toxicity, with the calculation of the body weight per group and body weight changes (BWC) relative to the start of treatment. Animals were sacrificed when the individual tumor volume exceeded 1 cm^3, or at the end of the study.

[2] = tested on: Endo-10590 endometrial cancer patient-derived xenograft; experiment: Endometrial cancer PDx model Endo-10590; conditions: for anti-tumor activity, in words: single i.v. dose
Description: as §2, §3

[3] = tested on: NCI-N87 cells; experiment: Crystal Violet cytotoxicity assay (Example 4), NCI-N87; type: cell-based, human; conditions: Homo sapiens; NCI-N87-Luc cells; mean of replicate experiments; read-out: Cytotoxicity IC50 (nM), NCI-N87-Luc (FR^lo, MSLN^med, her2^hi)
Description: (§1) Test reagents were serial diluted 1:3 in 2 mL deep-well dilution plates, starting at 200 nM (10 dilutions total). […] Medium was then discarded. […] Plates were read at 570 nm. Data was analyzed using GraphPad Prism 6.

[4] = in vivo; conditions: female, NMRI nu/nu, mouse, iv
Description: as §2, §3

[5] = tested on: A431 cells; experiment: Crystal Violet cytotoxicity assay (Example 4), A431 (parental); type: cell-based, human; conditions: Homo sapiens, A-431, mean of replicate experiments, read-out: Cytotoxicity IC50 (nM), A431 (FR^neg, MSLN^neg)
Description: Test reagents were serial diluted 1:3 in 2 mL deep-well dilution plates, starting at 200 nM (10 dilutions total). […] Medium was then discarded. […] Plates were read at 570 nm. Data was analyzed using GraphPad Prism 6. […]
MAL-PEG2-Val-Cit-PAB-eribulin (ER-001159569) was conjugated to eight different anti-human mesothelin antibodies (Table 1). Binding affinities of the parental antibodies were determined by BIAcore analysis, as described above in section 1.6.1. Aggregation levels for all anti-human mesothelin ADCs were determined by SEC-HPLC and the DAR was analyzed using HIC-HPLC. In vitro potency was evaluated using a Crystal Violet cell-based cytotoxicity assay in A3 (A431 stabily transfected with human mesothelin (MSLN), MSLN^hi), OVCAR3 (human ovarian, MSLN^hi), HEC-251 (human endometroid, MSLN^med), H226 (human lung squamous cell mesothelioma, MSLN^lo), and A431 parental (MSLN^neg) cells.

[6] = tested on: HL-60 cells; experiment: Bystander killing assay, Nuclight Red HL-60; type: cell-based, human; conditions: Homo sapiens; HL-60 cells treated with free eribulin; read-out: EC50, HL-60 (eribulin)
Description: The day before study commencement, Nuclight™ Green (NLG) IGROV1 cells were seeded at 5,000 cells/well into 96-well round bottom plates, followed by centrifugation at 1,000 rpm for 3 min at room temperature to ensure formation of a cell pellet. The plate was placed in the vessel of an Incucyte Zoom® (EssenBio science) and incubated at 37° C./5% CO2 overnight. The program was set to collect images of cell growth, and to determine total numbers of nuclear green-stained and nuclear red-stained cells as well as phase-confluency of the cells every two hours. […] 50 μL of cytotoxin solution was added to the NLG-IGROV1 cells and incubated for 30 min. During the incubation period, Nuclight™ Red (NLR) HL-60 (FR^neg) cells were diluted to 2×10^5, 1×10^5 or 5×10^4 cell/mL with fresh media. 50 μL of the NLR-HL60 cell suspension or medium alone was added to the NLG-IGROV1 wells, followed by centrifugation at 1,000 rpm for 3 min at room temperature to ensure re-formation of the cell pellet. The plate was placed back into the vessel of Incucyte Zoom (EssenBio science) and incubated at 37° C./5% CO2 for up to 5 days. Relative cell growth of NLG-IGROV1 was determined by comparison to no ADC or free drug alone added samples using green cell counts. Relative cell growth of HL60 was done similarly, except that red cell count was determined. Determination of IC50 values for both NLG-IGROV1 and NLR-HL-60 was determined using Prism (GraphPad).
In order to assess bystander killing activity, an assay was set up using two labeled cell lines. […] Cytotoxicity was monitored by an Incucyte Zoom® cell imager.

[7] = tested on: BT-474 cells; experiment: Crystal Violet cytotoxicity assay (Example 4), BT-474; type: cell-based, human; conditions: Homo sapiens; BT-474 cells; mean of replicate experiments; read-out: Cytotoxicity IC50 (nM), BT-474 (FR^neg, MSLN^neg, her2^hi)
Description: as §1

[8] = tested on: human BM-MSCs co-cultured with MKN-74 cells; experiment: 3D co-culture system (rStomach, zPredicta), MSC differentiation by flow cytometry; type: cell-based; conditions: 7 days treatment, MORAb-202 10 nM, MORAb-003 10 nM, eribulin […] and 0.2 nM (Table 41)
Description: All mesenchymal stem cell (MSC)-containing 3D co-culture experiments were conducted in zPredicta, using organ-specific 3D extracellular matrix systems such as rStomach™. Bone marrow mesenchymal stem cells (BM-MSCs) in rStomach™ were co-cultured with the Nuc Red Light MKN-74 gastric cancer cell line in quadruplicate in 48-well format for 12 days. […] Prior to culture, BM-MSCs were evaluated for target antigen expression and for markers of MSC differentiation (Table 40) by flow cytometry.
Controls included untreated and vehicle-treated (PBS and DMSO) cultures. MSC differentiation was monitored by light microscopy. Once visible differentiation was observed, samples were harvested for staining and flow cytometry analysis.
Bone marrow mesenchymal stem cells (BM-MSCs) in rStomach™ (zPredicta) were co-cultured with the MKN-74 gastric cancer cell line for 12 days. […] Once visible MSC differentiation was observed by light microscopy, samples were harvested for staining and flow cytometry analysis.

[9] = tested on: NUGC3 cells; experiment: Crystal Violet cytotoxicity assay (Example 4), NUGC3; type: cell-based, human; conditions: Homo sapiens, NUGC-3; NUGC3-Luc cells; mean of replicate experiments; read-out: Cytotoxicity IC50 (nM), NUGC3-Luc (FR^neg, MSLN^neg, her2^neg)
Description: as §1

[10] = tested on: ZR-75 cells; experiment: Crystal Violet cytotoxicity assay (Example 4), ZR-75; type: cell-based, human; conditions: Homo sapiens, ZR75; ZR-75-1 cells; mean of replicate experiments; read-out: Cytotoxicity IC50 (nM), ZR-75-1 (FR^neg, MSLN^neg, her2^med)
Description: as §1

[11] = in vivo; conditions: female, NMRI nu/nu, mouse, iv; remark: listed apart in the source
Description: as §2, §3

[12] = Maximum tolerated dose of eribulin in CD-1 mice; type: in vivo, mouse; conditions: for toxicity, in words: q4dx3
Description: Naïve CD-1 mice were injected intravenously with 200 μL of eribulin according to the schedule in Table 22. Body weight was measured three times a week including prior to dose on each dosing day and 24 hours following each dose. […] The terminal body weight was measured and recorded. Euthanized mice at the end of the study (and if any mouse euthanized or found dead during the study) were processed for necropsy. Organs were examined for signs of tissue damage.

[13] = tested on: NCI-H2110 cells; experiment: Crystal Violet cytotoxicity assay (Example 4), NCI-H2110; type: cell-based, human; conditions: Homo sapiens, mean of replicate experiments, read-out: Cytotoxicity IC50 (nM), NCI-H2110 (FR^med, MSLN^med)
Description: as §1

[14] = tested on: IGROV1 cells; experiment: Crystal Violet cytotoxicity assay (Example 4), IGROV1; type: cell-based, human; conditions: Homo sapiens, IGROV-1, mean of replicate experiments, read-out: Cytotoxicity IC50 (nM), IGROV1 (FR^hi, MSLN^neg)
Description: as §1

[15] = MORAb-202 5 mg/kg or eribulin 3.2 mg/kg

C=C1C[C@@H]2CC[C@@]34C[C@H]5O[C@H]6[C@@H](O3)[C@H]3O[C@H](CC[C@@H]3O[C@H]6[C@H]5O4)CC(=O)C[C@@H]3[C@@H](OC)[C@@H](C[C@H](O)CN)O[C@H]3C[C@H]3O[C@@H](CC[C@@H]1O2)C[C@@H](C)C3=C [eribulin]
tumor re-growth during the study, in words [1, 15]: began to re-grow
anti-tumor activity, in words [1, 15]: significant anti-tumor activity
anti-tumor activity, in words ([1]; eribulin 0.1 mg/kg): no significant anti-tumor activity
effect on body weight, in words ([1]; first week post-treatment): temporarily affected body weight
tumor re-growth during the study, in words [2, 15]: began to re-grow
anti-tumor activity, in words [2, 15]: significant anti-tumor activity
anti-tumor activity, in words ([2]; eribulin 0.1 mg/kg): no significant anti-tumor activity
effect on body weight, in words ([2]; first week post-treatment): temporarily affected body weight
IC50 [3]: 0.257 nM
MTD [4]: 3.2 mg/kg
IC50 [5]: 0.653 nM
EC50 [6]: 0.17 nM
IC50 [7]: 0.151 nM
Percentage of live cells, Pericytes ([8]; PBS 14.6%): 25.8%
Percentage of live cells, Adipocytes ([8]; PBS […]): 2.68%
Percentage of live cells, MSCs ([8]; PBS […]): 29.9%
IC50 [9]: 0.445 nM
IC50 [10]: 0.236 nM
MTD [11]: 3.2 mg/kg
clinical finding, in words ([12]; 3.2 mg/kg q4dx3, after the second dose): piloerection in all three mice
body weight loss of individual mouse ([12]; 3.2 mg/kg q4dx3, after the third dose): 17% and 8%
toxicity, in words ([12]; 3.2 mg/kg): severe weight loss
toxicity, in words ([12]; doses up to 1.6 mg/kg): no toxicity
body weight loss or clinical findings, in words ([12]; doses up to 1.6 mg/kg, q4dx3, i.v.): No significant body weight loss or clinical findings indicating toxicity
gross organ changes at necropsy, in words ([12]; mouse, in vivo): No gross changes
MTD ([12]; mouse, in vivo, iv, q4dx3, i.v., CD-1 mice): 1.6 mg/kg
IC50 [13]: 0.199 nM
IC50 [14]: 0.32 nM
